Experimental data taken from patent publication US7612211B2, “Benzimidazole TRPV1 inhibitors” (Janssen Pharmaceutica N.V., priority 2006, dated 2009).

Target: T1, hTRPV1 (Homo sapiens, UniProt Q8NER1)
T1 construct: expressed in transfected cells; host or cells: HEK293
Test: Human TRPV1 (hTRPV1) functional assay, FLIPR intracellular Ca2+, capsaicin challenge
Type: cell-based
Conditions: HEK293 cells expressing hTRPV1, capsaicin 0.030 μM challenge; for inhibition at 0.2 µM: test concentration of 0.2 μm, read-out: percent inhibition (symbol b); for inhibition at 0.5 µM: test concentration of 0.5 μm, read-out: percent inhibition (symbol a); for IC50: derived from a variety of test concentrations, read-out: IC50 value (symbol c)
In short: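 HEK293 cells expressing the channel, loaded with Calcium 3 dye, were exposed to compounds for 5 min before capsaicin 0.030 μM (~80% maximal). FLIPR Ca2+ read; IC50/EC50 from quadruplicate concentration-response, or percent inhibition at 0.5 μm or 0.2 μm.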

T1 sequence (Q8NER1 whole entry): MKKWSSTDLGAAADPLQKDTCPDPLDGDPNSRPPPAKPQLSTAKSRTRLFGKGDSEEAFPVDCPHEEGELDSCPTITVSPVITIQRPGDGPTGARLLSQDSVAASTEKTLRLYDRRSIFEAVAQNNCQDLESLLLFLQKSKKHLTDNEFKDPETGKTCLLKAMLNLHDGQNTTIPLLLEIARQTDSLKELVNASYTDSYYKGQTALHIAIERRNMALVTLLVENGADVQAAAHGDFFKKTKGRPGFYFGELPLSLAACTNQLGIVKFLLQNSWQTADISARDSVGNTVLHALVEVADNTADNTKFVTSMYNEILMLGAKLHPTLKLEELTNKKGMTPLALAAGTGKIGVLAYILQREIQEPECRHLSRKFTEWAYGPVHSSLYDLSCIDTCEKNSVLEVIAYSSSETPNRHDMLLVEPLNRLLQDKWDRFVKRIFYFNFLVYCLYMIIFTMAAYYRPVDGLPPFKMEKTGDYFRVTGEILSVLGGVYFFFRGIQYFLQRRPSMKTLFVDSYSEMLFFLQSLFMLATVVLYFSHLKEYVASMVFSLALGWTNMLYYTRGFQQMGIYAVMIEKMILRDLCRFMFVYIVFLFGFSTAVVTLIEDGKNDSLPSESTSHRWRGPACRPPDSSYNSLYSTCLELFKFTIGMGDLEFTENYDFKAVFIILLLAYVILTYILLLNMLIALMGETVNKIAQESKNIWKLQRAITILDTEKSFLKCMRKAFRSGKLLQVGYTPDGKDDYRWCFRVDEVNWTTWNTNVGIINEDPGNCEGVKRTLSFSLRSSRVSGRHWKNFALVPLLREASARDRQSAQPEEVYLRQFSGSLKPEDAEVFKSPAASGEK

SMILES | inhibition at 0.2 µM | inhibition at 0.5 µM | IC50
Oc1cccc(-c2ccc3[nH]c(COc4ccc(C(F)(F)F)cc4)nc3c2)c1 [Cpd 120, 3-[2-(4-trifluoromethyl-phenoxymethyl)-1H-benzoimidazol-5-yl]-phenol] |  | 15% | 
CNS(=O)(=O)c1ccccc1-c1ccc2[nH]c(COc3ccc(Cl)cc3)nc2c1 [Cpd 18, 2-[2-(4-chloro-phenoxymethyl)-1H-benzoimidazol-5-yl]-N-methyl-benzenesulfonamide] |  | 97% | 71 nM
CS(=O)(=O)c1ccccc1-c1ccc2[nH]c(COc3cc(C(F)(F)F)cc(C(F)(F)F)c3)nc2c1 [Cpd 73, 2-(3,5-bis-trifluoromethyl-phenoxymethyl)-5-(2-methanesulfonyl-phenyl)-1H-benzoimidazole] | 33% |  | 
CON(C)C(=O)C(O)c1ccccc1-c1ccc2[nH]c(COc3ccc(C(F)(F)F)cc3)nc2c1 (stereo not shown) [Cpd 149, 2-hydroxy-N-methoxy-N-methyl-2-{2-[2-(4-trifluoromethyl-phenoxymethyl)-1H-benzoimidazol-5-yl]-phenyl}-acetamide] | 89% |  | 46 nM
CS(=O)(=O)c1ccc(-c2ccc3[nH]c(COc4ccc(C(F)(F)F)cc4)nc3c2)cc1 [Cpd 100, 5-(4-methanesulfonyl-phenyl)-2-(4-trifluoromethyl-phenoxymethyl)-1H-benzoimidazole] |  | 13% | 
CN(C)S(=O)(=O)c1cccc(-c2ccc3[nH]c(COc4ccc(C(F)(F)F)cc4)nc3c2)c1 [Cpd 128, N,N-dimethyl-3-[2-(4-trifluoromethyl-phenoxymethyl)-1H-benzoimidazol-5-yl]-benzenesulfonamide] |  | 13% | 
CS(=O)(=O)c1ccc(OCc2nc3cc(-c4ccccc4S(C)(=O)=O)ccc3[nH]2)cc1 [Cpd 85, 2-(4-methanesulfonyl-phenoxymethyl)-5-(2-methanesulfonyl-phenyl)-1H-benzoimidazole] | 12% |  | 

Further lines, results first:

inhibition at 0.2 µM | inhibition at 0.5 µM | IC50 | SMILES
72% |  |  | CC(O)C(=O)c1ccccc1-c1ccc2[nH]c(COc3ccc(C(F)(F)F)cc3)nc2c1 (stereo not shown) [Cpd 146, 2-hydroxy-1-{2-[2-(4-trifluoromethyl-phenoxymethyl)-1H-benzoimidazol-5-yl]-phenyl}-propan-1-one]
98% |  | 7 nM | CS(=O)(=O)c1ccccc1-c1ccc2[nH]c(COc3ccc(C4CC4)cc3)nc2c1 [Cpd 167, 2-(4-cyclopropyl-phenoxymethyl)-5-(2-methanesulfonyl-phenyl)-1H-benzoimidazole]
1% |  |  | CC(=O)Nc1cccc(OCc2nc3cc(-c4ccccc4S(C)(=O)=O)ccc3[nH]2)c1 [Cpd 94, N-{3-[5-(2-methanesulfonyl-phenyl)-1H-benzoimidazol-2-ylmethoxy]-phenyl}-acetamide]
 | 18% |  | NS(=O)(=O)c1ccccc1-c1ccc2[nH]c(OCc3ccc(C(F)(F)F)cc3)nc2c1 [Cpd 138, 2-[2-(4-trifluoromethyl-benzyloxy)-1H-benzoimidazol-5-yl]-benzenesulfonamide]
14% |  |  | CS(=O)(=O)c1ccccc1-c1ccc2[nH]c(COc3ccccc3Cl)nc2c1 [Cpd 57, 2-(2-chloro-phenoxymethyl)-5-(2-methanesulfonyl-phenyl)-1H-benzoimidazole]
 | 100% | 19 nM | CC(C)(O)c1ccccc1-c1ccc2[nH]c(COc3ccc(Cl)cc3)nc2c1 [Cpd 23, 2-{2-[2-(4-chloro-phenoxymethyl)-1H-benzoimidazol-5-yl]-phenyl}-propan-2-ol]
12% |  |  | NS(=O)(=O)c1ccccc1-c1ccc2[nH]c(CS(=O)(=O)c3ccc(C(F)(F)F)cc3)nc2c1 [Cpd 44, 2-[2-(4-trifluoromethyl-benzenesulfonylmethyl)-1H-benzoimidazol-5-yl]-benzenesulfonamide]
 | 14% |  | CC(=O)Nc1ccc(-c2ccc3[nH]c(COc4ccc(C(F)(F)F)cc4)nc3c2)cc1 [Cpd 115, N-{4-[2-(4-trifluoromethyl-phenoxymethyl)-1H-benzoimidazol-5-yl]-phenyl}-acetamide]
